From PubChem BioAssay (NCI)
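Grown in 96-well plates, cells were treated for 48 hours with each compound at five concentrations. Insufficient inhibition: endpoint recorded as highest concentration tested. TGI denotes the concentration required for complete inhibition of growth.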

Experiments:
Assay in all cases: inhibition of tumour cell growth, NCI panel, 48 h
OVCAR-8 ovarian = system: OVCAR-8 ovarian
RXF 393 renal = system: RXF 393 renal
ACHN renal = system: ACHN renal
HOP-92 NSCLC = system: HOP-92 NSCLC
HL-60(TB) leukemia = system: HL-60(TB) leukemia
XF 498 CNS = system: XF 498 CNS
M14 melanoma = system: M14 melanoma
KM12 colon = system: KM12 colon
NCI-H23 lung = system: NCI-H23 lung
786-0 renal = system: 786-0 renal
OVCAR-4 ovarian = system: OVCAR-4 ovarian
HOP-62 NSCLC = system: HOP-62 NSCLC
SF-268 CNS = system: SF-268 CNS
HCC-2998 colon = system: HCC-2998 colon
MOLT-4 leukemia = system: MOLT-4 leukemia
IGROV1 ovarian = system: IGROV1 ovarian
HCT-15 colon = system: HCT-15 colon
SF-295 CNS = system: SF-295 CNS
RPMI-8226 leukemia = system: RPMI-8226 leukemia
TK-10 renal = system: TK-10 renal
NCI-H460 lung = system: NCI-H460 lung
SK-MEL-2 melanoma = system: SK-MEL-2 melanoma
HCT-116 colon = system: HCT-116 colon
DMS 114 small cell lung = system: DMS 114 small cell lung
SK-MEL-28 melanoma = system: SK-MEL-28 melanoma
LXFL 529 NSCLC = system: LXFL 529 NSCLC
K-562 leukemia = system: K-562 leukemia
SNB-78 CNS = system: SNB-78 CNS
U251 CNS = system: U251 CNS
M19-MEL melanoma = system: M19-MEL melanoma
EKVX NSCLC = system: EKVX NSCLC
HOP-18 NSCLC = system: HOP-18 NSCLC
LOX IMVI melanoma = system: LOX IMVI melanoma
NCI-H226 lung = system: NCI-H226 lung
NCI-H522 lung = system: NCI-H522 lung
KM20L2 colon = system: KM20L2 colon
OVCAR-5 ovarian = system: OVCAR-5 ovarian
MALME-3M melanoma = system: MALME-3M melanoma
DMS 273 small cell lung = system: DMS 273 small cell lung
CCRF-CEM leukemia = system: CCRF-CEM leukemia
UACC-257 melanoma = system: UACC-257 melanoma
UO-31 renal = system: UO-31 renal
UACC-62 melanoma = system: UACC-62 melanoma
SK-OV-3 ovarian = system: SK-OV-3 ovarian
COLO 205 colon = system: COLO 205 colon
SF-539 CNS = system: SF-539 CNS
CAKI-1 renal = system: CAKI-1 renal
SNB-19 CNS = system: SNB-19 CNS
A498 renal = system: A498 renal
DLD-1 colon = system: DLD-1 colon
RXF-631 renal = system: RXF-631 renal
OVCAR-3 ovarian = system: OVCAR-3 ovarian
SNB-75 CNS = system: SNB-75 CNS
HT29 colon = system: HT29 colon
SN12C renal = system: SN12C renal
SR leukemia = system: SR leukemia
A549 NSCLC = system: A549 NSCLC
SW-620 colon = system: SW-620 colon
SK-MEL-5 melanoma = system: SK-MEL-5 melanoma

Measured: TGI

O=[N+]([O-])c1ccc(C=NC23CC4CC(CC(C4)C2)C3)cc1
not listed: SR leukemia | A549 NSCLC | SW-620 colon | SK-MEL-5 melanoma
> 100 µM: all other assays above

CC1(C)N=C(c2ccccn2)C(c2ccccn2)=NC1(C)C
not listed: NCI-H23 lung | HOP-62 NSCLC | TK-10 renal | SK-MEL-28 melanoma | HOP-18 NSCLC | NCI-H522 lung | SK-OV-3 ovarian | SNB-75 CNS
> 100 µM: all other assays above
